Data set [1] deals with H1299 cells. As to the kind of experiment: MTT cell viability assay, 72 h, in the presence of RT. The data set is classed as cell-based, human. As to conditions: with RT. As for the experimental part: FIGS. 7A-7E are plots showing the results of a cell cycle analysis, based on PI staining and assessed by flow cytometry. H1299 cells were incubated with PBS (7A), DM1 (7B), DM1-NO (7C), DM1-NPs (7D), or DM1-NO-NPs (20 nM, DM1 concentration) (7E) before analysis. […] FIG. 7G is a bar graphs showing Percentage of tubulin inhibition. Tubulin polymer was collected by centrifugation (35000×g for 1 h at 30° C.) and the amount of tubulin protein sediment was quantified by measuring protein concentration. ***, P<0.001. FIG. 7H is a line graph showing cell viability, tested with H1299 cells using 72-h MTT in the presence of RT. DM1, DM1-NO, and DM1-NO-NPs were studied.
The viability of the H1299 cells after different treatments was measured by (4,5-dimethythiazon-2-yl)-2,5-diphenyl tetrazolium bromide (MTT) assay using an Infinite M200 microplate reader (BioTek's Synergy™ Mx, USA). Around 3×10^3 cells per well were seeded into a 96-well plate and cultured overnight until the cells fully adhered to the bottom of the plate. The cells were treated with different treatment groups, including free drugs (DM1 and DM1-NO), and drug loaded nanoparticles (DM1-NPs and DM1-NO-NPs) for 72 h. […] The plate was gently shake for 5 min (instrument setup) to dissolve the formazan crystals, and the absorbance at 570 nm was recorded by a microplate reader. […]
For orientation: Formazan colour is commonly taken as a measure of viable cells.

Data set [2] concerns H1299 cells. Kind of data set: MTT cell viability assay, 72 h, without RT. Format: cell-based, human. Here is the method: The viability of the H1299 cells after different treatments was measured by (4,5-dimethythiazon-2-yl)-2,5-diphenyl tetrazolium bromide (MTT) assay using an Infinite M200 microplate reader (BioTek's Synergy™ Mx, USA). Around 3×10^3 cells per well were seeded into a 96-well plate and cultured overnight until the cells fully adhered to the bottom of the plate. The cells were treated with different treatment groups, including free drugs (DM1 and DM1-NO), and drug loaded nanoparticles (DM1-NPs and DM1-NO-NPs) for 72 h. […] After that MTT reagent (in 20 μL PBS, 5 mg/mL) was added to each well. The cells were further incubated for 4 h at 37° C. The medium in each well was then removed and replaced by 100 μL DMSO. The plate was gently shake for 5 min (instrument setup) to dissolve the formazan crystals, and the absorbance at 570 nm was recorded by a microplate reader. Each experiment condition was run three times and the data were shown as the mean value plus a standard deviation (±SD).

Data set [3] concerns H1299 cells. As to the kind of experiment: Clonogenic assay with X-ray irradiation, linear-quadratic model. The data set is classed as cell-based, human. The following applies: 20 nM, 12 h, X-rays 0-10 Gy. As for the experimental part:
Around 3×10^5 of H1299 cells were plated in a series of 25 mm petri dishes in 5 mL of complete RMPI-1640 medium, and the cells were incubated for 24 h at 37° C. Once the cells were completely adhered to the bottom of the plate, the media was replaced with fresh RPMI-1640 containing DM1 or DM1-NO with a final concentration of 20 nM. After another 12 h of incubation, the cell cultures were irradiated by X-rays (320 kV) of different doses Immediately following the X-ray irradiation, the cell monolayers were trypsinized using 0.05% Trypsin/EDTA (Gibco, Life Technologies, USA). Single cells were collected and plated onto a 25 mm petri dish in 5 mL complete media (FIG. 1K). Each dish was then incubated for 21 days to allow colonies to form. After that, the media was removed and 0.5% crystal violet in 70% methanol was used to fixed and stain the existing colonies. The plates were sufficiently and carefully rinsed, and were dried at room temperature. Once dried, the colonies were counted manually under a microscope. When observed under the microscope, colonies of […] were said to be surviving colonies. The survival rate of these colonies was normalized to the plating efficiency of the untreated control cells. The mean and standard deviation of surviving colonies in each treatment group was calculated.
The potential of DM1-NO as a radiosensitizer was assessed by clonogenic assays. Briefly, DM1 or DM1-NO was incubated with H1299 cells, the cells were irradiated with X-rays (0-10 Gy), and the resulting cells were seeded onto a petri dish (FIG. 1K). Colonies consisting more than 50 cells after 3 weeks were counted, and the data fit to a linear-quadratic model (Table 3).

The subject of data set [4] is H1299 cells. Kind of data set: Cell cycle arrest, PI staining and flow cytometry. Format: cell-based, human. The following applies: 20 nM, 24 h; PBS control 17.5%. As for the experimental part: H1299 cells were seeded onto 6-well plates at a density of 2×10^5 cells per well and cultured overnight. The cells were then incubated with 20 nM of free drugs (DM1 and DM1-NO) or drug loaded nanoparticles (DM1-NPs and DM1-NO-NPs) for 24 h, and were then harvested and washed with ice-cold phosphate-buffered saline (PBS) and fixed with cold 70% (vol/vol) ethanol overnight at 4° C. The resulting cells were resuspended in PBS (1×) buffer containing a final concentration of 20 μg/mL RNase A and 20 μg/mL propidium iodide (eBioscience, Invitrogen, USA) for 15 min. The cell cycle profiles were determined using flow cytometry (HyperCyAn, Beckman USA) and analyzed using CellQuest software.
(In general: In flow cytometry, cells or beads pass a laser one at a time.)

Data set [5] is described as follows: In vivo toxicity study (hematology, blood biochemistry, liver tissue). The following applies: 260.8 nmol/kg i.v., Day 10. Set-up: species or system balb/c mice. As for the experimental part: Six-week old female albino BALB/c mice were purchased from Charles River Laboratories, USA. The animals were divided into control and experimental groups (n=3) and marked to permit individual identification. A similar dose (260.8 nmol/kg) of DM1-NO-NPs as used in therapeutic study was administered intravenously and the mice were examined for 10 days to observations for abnormal sign of toxicity such as change in behavioral, dizziness, respiratory distress or mortality were conducted until the end of the study. To further evaluate the hepatic function, alanine aminotransferase (ALT) and aspartate aminotransferase (AST) activities were measured and blood chemistry analysis was performed by using 20 μL blood serum sample form • each treated animal to assess the following: white blood cells (WBC), red blood cells (RBC), and platelets (PLT), plateletcrit, (PCT, mean platelet volume or platelet distribution width) and also corresponding sets of electrolytes (sodium, potassium, chloride, bicarbonate, sugar (glucose) calcium, inorganic phosphate, and magnesium, lipids (cholesterol), albumin, and total protein levels were also analyzed. Histological Analysis: […]

For data set [6] the following is noted: compared to wildtype NTS; cited from earlier work.
In data set [7] the target is NTSR1 (Homo sapiens, UniProt P30989). As to conditions: compared to wildtype NTS; cited from earlier work.
NTSR1, sequence (P30989 whole entry): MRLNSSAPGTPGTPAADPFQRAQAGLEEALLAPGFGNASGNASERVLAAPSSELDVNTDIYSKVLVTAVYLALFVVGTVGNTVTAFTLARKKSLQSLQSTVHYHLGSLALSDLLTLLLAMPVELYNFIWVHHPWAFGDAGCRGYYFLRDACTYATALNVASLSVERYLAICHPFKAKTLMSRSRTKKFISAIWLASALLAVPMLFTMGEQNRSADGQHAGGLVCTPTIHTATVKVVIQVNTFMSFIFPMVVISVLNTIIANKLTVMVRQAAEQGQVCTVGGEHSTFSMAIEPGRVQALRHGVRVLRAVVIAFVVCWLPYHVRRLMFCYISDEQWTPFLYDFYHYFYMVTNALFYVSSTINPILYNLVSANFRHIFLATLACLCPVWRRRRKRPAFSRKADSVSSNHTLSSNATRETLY

The structures appear in SMILES notation. Non-standard residues stand in square brackets, D forms with d. Residues, ends and D or L forms follow the SMILES beside them. ξ: configuration not given here. ξGly(4-Pip(1-amidino)) = N=C(N)N1CCC(C(N)C(=O)O)CC1; ξGly(piperidin-4-yl) = NC(C(=O)O)C1CCNCC1; ξTle = CC(C)(C)C(N)C(=O)O; ξP = O=C(O)C1CCCN1; ξC = NC(CS)C(=O)O

As to `COc1cc2cc(c1Cl)N(C)C(=O)C[C@H](OC(=O)[C@H](C)N(C)C(=O)CCS)[C@]1(C)O[C@H]1[C@H](C)[C@@H]1C[C@@](O)(NC(=O)O1)[C@H](OC)/C=C/C=C(\C)C2` [DM1, Mertansine, reference compound], in data set [1], the IC50 (in general, the concentration at which inhibition is half-maximal) was found to be 17.4 nM. Besides, the 50% inhibitory concentration (IC50) in data set [2] was 19.8 nM. In data set [3], the “D10 (radiation dose at 10% fractional survival)” value amounted to 4.89 Gy, the “α (linear quadratic model best fit value)” value is listed as 0.0729 and the “β (linear quadratic model best fit value)” value amounted to 0.0033. Further, the “portion of cells in the G2/M phase” value in data set [4] was determined as 85.3%. Besides, in data set [5], the “complete blood count: WBC, RBC, PLT, PCT levels” value is listed as “in the normal range”.

As to `CC(C)C[C@H](NC(=O)C(NC(=O)[C@H](Cc1ccc(O)cc1)NC(=O)C1CCCN1C(=O)[C@H](CCCNC(=N)N)NC(=O)C(NC(=O)C1CCCN1C(=O)C(NC(=O)C(N)CS)C1CCNCC1)C1CCN(C(=N)N)CC1)C(C)(C)C)C(=O)O` (stereo partly drawn) [NTSmut] (H-[ξC][ξGly(piperidin-4-yl)][ξP][ξGly(4-Pip(1-amidino))]R[ξP]Y[ξTle]L-OH), in data set [6], the biological stability entry was “much greater biological stability”. The “avidity to NTSR1” value in data set [7] was “comparable, nanomolar avidity”.

Values taken from US12570704B2, “Functionally modified maytansinoids and compositions and methods of use thereof” (University of Georgia Research Foundation, Inc., priority 2019, dated 2026).
